In ChEMBL document CHEMBL4340530, “Peptide-based covalent inhibitors of MALT1 paracaspase” (Bioorg Med Chem Lett, 2019):
Active and inactive are the calls of the source. The rule behind the calls is not given here.

How the values were obtained:
[1] = Half life in mouse plasma; assay type: ADME, cell-free
[2] = target: Cathepsin S (Homo sapiens) (UniProt P25774); assay: Inhibition of cathepsin S (unknown origin) at 1 uM relative to control
[3] = target: Cathepsin B (Homo sapiens) (UniProt P07858); assay: Inhibition of cathepsin B (unknown origin) at 100 nM relative to control
Caspase-9 (Homo sapiens) = Caspase-9 (Homo sapiens) (UniProt P55211); assay: Inhibition of caspase-9 (unknown origin) at 10 uM
[4] = target: T1, Cathepsin L2 (Homo sapiens) (UniProt O60911); assay: Inhibition of cathepsin V (unknown origin) at 1 uM relative to control
T1 sequence (whole entry): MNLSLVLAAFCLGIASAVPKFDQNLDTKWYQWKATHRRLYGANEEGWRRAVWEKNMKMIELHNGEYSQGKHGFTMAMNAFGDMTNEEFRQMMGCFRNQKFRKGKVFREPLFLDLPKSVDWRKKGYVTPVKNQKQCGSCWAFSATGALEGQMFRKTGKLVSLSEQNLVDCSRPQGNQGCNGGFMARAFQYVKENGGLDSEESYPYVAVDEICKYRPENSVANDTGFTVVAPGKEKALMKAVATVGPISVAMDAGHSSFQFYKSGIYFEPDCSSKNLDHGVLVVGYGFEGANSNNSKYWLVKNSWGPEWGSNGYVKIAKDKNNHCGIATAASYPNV

OCI-Ly1 = assay: Antitumor activity against human OCI-LY1 cells xenografted in ip dosed NOD.CB17-Prkdc SCID mouse assessed as effect on tumor growth administered twice daily for 16 to 24 days measured 4 hrs post-last dose; assay type: functional, organism-based
Caspase-5 (Homo sapiens) = Caspase-5 (Homo sapiens) (UniProt P51878); assay: Inhibition of caspase-5 (unknown origin) at 10 uM
[5] = Half life in mouse microsomes; assay type: ADME, Microsome
[6] = target: Kallikrein-2 (Homo sapiens) (UniProt P20151); assay: Inhibition of KLK2 (unknown origin) at 10 uM
[7] = target: Urokinase-type plasminogen activator (Homo sapiens) (UniProt P00749); assay: Inhibition of urokinase (unknown origin) at 10 uM
[8] = target: Prothrombin (Homo sapiens) (UniProt P00734); assay: Inhibition of thrombin (unknown origin) at 100 nM relative to control
OCI-Ly3 = assay: Antiproliferative activity against human OCI-LY3 cells assessed as growth inhibition treated every 48 hrs measured after 96 hrs by CellTiter-Glo assay; assay type: functional
[9] = target: T1, Cathepsin L2 (Homo sapiens); assay: Inhibition of cathepsin V (unknown origin) at 10 uM relative to control
[10] = target: Cathepsin S (Homo sapiens) (UniProt P25774); assay: Inhibition of cathepsin S (unknown origin) at 10 uM relative to control
Caspase-4 (Homo sapiens) = Caspase-4 (Homo sapiens) (UniProt P49662); assay: Inhibition of caspase-4 (unknown origin) at 10 uM
[11] = target: Tryptase beta-2 (Homo sapiens) (UniProt P20231); assay: Inhibition of tryptase b2 (unknown origin) at 10 uM relative to control
[12] = target: T2, Cathepsin K (Homo sapiens) (UniProt P43235); assay: Inhibition of cathepsin K (unknown origin) at 10 uM relative to control
T2 sequence (whole entry): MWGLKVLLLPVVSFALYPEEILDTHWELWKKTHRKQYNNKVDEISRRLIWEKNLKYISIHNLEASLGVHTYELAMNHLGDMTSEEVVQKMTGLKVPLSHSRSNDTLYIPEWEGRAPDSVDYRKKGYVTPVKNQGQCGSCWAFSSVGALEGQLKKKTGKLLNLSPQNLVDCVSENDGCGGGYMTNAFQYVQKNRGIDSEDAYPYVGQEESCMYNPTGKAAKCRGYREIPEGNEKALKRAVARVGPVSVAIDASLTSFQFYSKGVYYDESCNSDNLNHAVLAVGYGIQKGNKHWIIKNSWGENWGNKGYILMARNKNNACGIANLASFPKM

Cathepsin S (Homo sapiens), sequence (P25774 115-331 limits assumed): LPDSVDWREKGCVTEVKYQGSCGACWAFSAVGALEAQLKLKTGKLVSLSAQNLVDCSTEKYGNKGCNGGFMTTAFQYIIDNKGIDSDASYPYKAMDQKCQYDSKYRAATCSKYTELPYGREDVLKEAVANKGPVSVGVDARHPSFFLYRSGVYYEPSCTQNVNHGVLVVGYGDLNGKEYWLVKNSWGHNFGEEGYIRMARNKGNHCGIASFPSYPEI
Caspase-9 (Homo sapiens), sequence (P55211 1-315 limits assumed): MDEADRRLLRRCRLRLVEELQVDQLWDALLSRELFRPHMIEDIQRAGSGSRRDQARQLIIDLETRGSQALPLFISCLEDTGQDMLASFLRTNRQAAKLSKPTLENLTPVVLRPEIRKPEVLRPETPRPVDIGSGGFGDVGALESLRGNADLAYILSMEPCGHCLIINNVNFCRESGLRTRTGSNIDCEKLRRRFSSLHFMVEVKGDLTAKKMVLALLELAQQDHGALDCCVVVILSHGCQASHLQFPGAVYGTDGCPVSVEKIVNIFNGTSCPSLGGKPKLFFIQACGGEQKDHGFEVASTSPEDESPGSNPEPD
Caspase-9 (Homo sapiens), sequence (P55211 331-416 limits assumed): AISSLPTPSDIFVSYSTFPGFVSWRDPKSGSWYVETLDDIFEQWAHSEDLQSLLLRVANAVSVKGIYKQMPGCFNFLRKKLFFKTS
Tryptase beta-2 (Homo sapiens), sequence (P20231 whole entry): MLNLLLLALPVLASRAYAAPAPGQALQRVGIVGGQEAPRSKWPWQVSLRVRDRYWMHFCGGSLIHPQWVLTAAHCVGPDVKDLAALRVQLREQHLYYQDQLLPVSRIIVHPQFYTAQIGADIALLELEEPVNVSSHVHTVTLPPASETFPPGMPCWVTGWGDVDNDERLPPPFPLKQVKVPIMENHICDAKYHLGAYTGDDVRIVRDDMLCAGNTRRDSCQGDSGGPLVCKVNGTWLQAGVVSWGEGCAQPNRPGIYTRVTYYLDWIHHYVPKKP
Caspase-5 (Homo sapiens), sequence (P51878 137-327 limits assumed): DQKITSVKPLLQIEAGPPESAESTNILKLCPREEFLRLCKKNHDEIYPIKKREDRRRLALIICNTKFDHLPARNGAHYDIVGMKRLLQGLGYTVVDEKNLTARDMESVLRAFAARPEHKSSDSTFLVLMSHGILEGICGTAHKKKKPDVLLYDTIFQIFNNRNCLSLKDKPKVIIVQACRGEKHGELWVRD
Caspase-5 (Homo sapiens), sequence (P51878 347-434 limits assumed): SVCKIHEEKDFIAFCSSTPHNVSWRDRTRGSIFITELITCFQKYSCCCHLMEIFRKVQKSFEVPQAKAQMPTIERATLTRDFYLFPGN
Caspase-4 (Homo sapiens), sequence (P49662 81-270 limits assumed): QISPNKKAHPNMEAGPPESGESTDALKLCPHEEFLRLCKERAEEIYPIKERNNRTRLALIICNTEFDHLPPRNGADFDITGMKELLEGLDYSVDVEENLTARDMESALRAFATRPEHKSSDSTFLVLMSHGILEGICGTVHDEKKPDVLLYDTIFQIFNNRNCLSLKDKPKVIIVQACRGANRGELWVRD
Caspase-4 (Homo sapiens), sequence (P49662 290-377 limits assumed): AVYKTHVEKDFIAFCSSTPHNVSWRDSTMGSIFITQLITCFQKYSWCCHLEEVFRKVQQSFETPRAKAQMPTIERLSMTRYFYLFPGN
Kallikrein-2 (Homo sapiens), sequence (P20151 whole entry): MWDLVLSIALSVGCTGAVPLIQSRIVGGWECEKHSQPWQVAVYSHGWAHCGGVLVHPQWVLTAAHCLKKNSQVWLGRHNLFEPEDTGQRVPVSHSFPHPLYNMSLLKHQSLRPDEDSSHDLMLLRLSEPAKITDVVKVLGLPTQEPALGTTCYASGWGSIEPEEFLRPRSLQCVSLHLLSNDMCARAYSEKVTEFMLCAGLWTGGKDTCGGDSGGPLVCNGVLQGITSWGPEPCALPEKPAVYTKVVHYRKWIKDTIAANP

CC(C)[C@H](NC(=O)c1ccc(Br)cc1)C(=O)N1CCC[C@H]1C(=O)N[C@@H](CCCNC(=N)N)C(=O)CF
t1/2 [1]: 4.3 h | inhibition [2]: 83.9% | inhibition [3]: 34.2% | inhibition (Caspase-9 (Homo sapiens)): Active | inhibition [4]: 56.9% | Activity (OCI-Ly1): Active | inhibition (Caspase-5 (Homo sapiens)): Active | t1/2 [5]: > 2 h | inhibition [6]: Active | inhibition [7]: Active | inhibition [8]: 14.8% | GI50 (OCI-Ly3): 130 nM | inhibition [9]: 89.4% | inhibition [10]: 99.1% | inhibition (Caspase-4 (Homo sapiens)): Active | inhibition [11]: 79% | inhibition [12]: 98.7%
